{
  "source": "patent US9603950B1",
  "about": "“Compounds of imaging agent with HDAC inhibitor for treatment of Alzheimer syndrome and method of synthesis thereof” (INSTITUTE OF NUCLEAR ENERGY RESEARCH, priority 2015, dated 2017)",
  "conditions_in_all_cases": "BNL-26 inhibitor labeled with 11C",
  "key": {"HDAC2": {"molecular_target": "HDAC2 (Homo sapiens, UniProt Q92769)", "sequence (Q92769 whole entry, species assumed)": "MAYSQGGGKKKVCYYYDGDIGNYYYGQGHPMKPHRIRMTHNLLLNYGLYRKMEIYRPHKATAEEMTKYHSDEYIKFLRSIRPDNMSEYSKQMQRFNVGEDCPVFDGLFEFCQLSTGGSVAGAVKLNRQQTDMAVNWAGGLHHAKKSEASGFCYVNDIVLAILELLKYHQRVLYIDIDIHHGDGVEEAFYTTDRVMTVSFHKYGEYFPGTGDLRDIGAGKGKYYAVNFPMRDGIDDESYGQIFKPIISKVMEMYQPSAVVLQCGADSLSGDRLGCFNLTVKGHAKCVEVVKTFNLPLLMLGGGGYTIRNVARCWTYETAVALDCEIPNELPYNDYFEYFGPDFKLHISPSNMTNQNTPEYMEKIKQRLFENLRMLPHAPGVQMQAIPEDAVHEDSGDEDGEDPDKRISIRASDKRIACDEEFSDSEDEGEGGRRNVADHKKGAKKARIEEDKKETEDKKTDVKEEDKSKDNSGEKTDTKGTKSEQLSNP", "test": "HDAC2 inhibition, previous study of 11C-labeled BNL-26", "assay_type": "biochemical"}, "[1]": {"test": "Penetration of the brain blood vessel barrier, previous study of 11C-labeled BNL-26", "assay_type": "in vivo"}, "HDAC1": {"molecular_target": "HDAC1 (Homo sapiens, UniProt Q13547)", "sequence (Q13547 whole entry, species assumed)": "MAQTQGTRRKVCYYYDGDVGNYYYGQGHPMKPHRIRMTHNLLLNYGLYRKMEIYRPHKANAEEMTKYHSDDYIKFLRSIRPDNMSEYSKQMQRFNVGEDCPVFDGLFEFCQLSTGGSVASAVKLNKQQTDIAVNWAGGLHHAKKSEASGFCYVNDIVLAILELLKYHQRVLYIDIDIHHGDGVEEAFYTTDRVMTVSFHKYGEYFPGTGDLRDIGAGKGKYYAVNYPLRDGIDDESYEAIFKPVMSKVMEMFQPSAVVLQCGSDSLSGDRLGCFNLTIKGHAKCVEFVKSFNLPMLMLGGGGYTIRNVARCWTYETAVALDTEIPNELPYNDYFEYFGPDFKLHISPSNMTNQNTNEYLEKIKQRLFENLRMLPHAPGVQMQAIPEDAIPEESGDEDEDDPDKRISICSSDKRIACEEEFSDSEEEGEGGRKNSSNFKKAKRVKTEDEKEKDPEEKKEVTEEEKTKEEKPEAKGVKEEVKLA", "test": "HDAC1 inhibition, previous study of 11C-labeled BNL-26", "assay_type": "biochemical"}},
  "data": [
    {"smiles": "CN(C)Cc1ccc(C(=O)Nc2cc(-c3ccccc3)ccc2N)cc1", "note": "[BNL-26, N-(4-amino-[1,1′-biphenyl]-3-yl)-4-((dimethylamino)methyl)benzamide]", "values": [
      {"measurement": "inhibitory effect of HDAC2", "setting": "HDAC2", "value": "good inhibitory effect"},
      {"measurement": "ability to penetrate the brain blood vessel barrier", "setting": "[1]", "value": "very good"},
      {"measurement": "inhibitory effect of HDAC1", "setting": "HDAC1", "value": "good inhibitory effect"}
    ]}
  ]
}
